Results taken from US9023789B2, “Amylin analogs and pharmaceutical compositions thereof” (Novo Nordisk A/S, priority 2012, dated 2015).
In brackets after ≈: the same amount, converted by molar mass. Like-named read-outs stand apart in the source and are kept apart here. Numbered stars: 1 amine (or outer) side, 2 acyl side, 3 side chain; on linkers, the order of the positions; unused ones are H or OH. Bridge positions count the residues as written; N and C are the ends. Side chains are listed from the residue outwards. Peptide text beside a SMILES is read from it. * marks the point of attachment. C20 diacid = O=C(O)CCCCCCCCCCCCCCCCCCC(=O)*; γGlu = O=C(O)[C@H](CCC(=O)[*:2])N[*:1]; AEEA = NCCOCCOCC(=O)O

How the values were obtained:
[1] = tested on: Sprague Dawley (SD) rats; assay: ASSAY (I) efficacy testing on appetite (food intake) using an ad libitum fed rat model; type: in vivo; conditions: rat, 30 nmol/kg
Method in brief: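 Individual food consumption was logged each hour up to 7 h and again at 24 h, occasionally 48 h, with Grubbs-test outliers removed. Each 200–250 g Sprague Dawley rat, free-feeding in its home cage under reversed lighting, received a single ip, po or sc dose of 0.01–3 mg/kg at lights-off, alongside a vehicle group.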

[2] = ASSAY (III) ThT fibrillation assay for physical stability; type: physicochemical
Method in brief: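 Physical stability scored by ThT fluorescence (444 nm excitation, 485 nm emission) tracked every 20 min during 37 °C incubation with 960 rpm shaking, ThT at 1 μM final. Values are replicate means with SD at chosen times; HPLC against pramlintide standard gives initial and post-assay soluble concentrations.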

[3] = ASSAY (IV) determination of solubility; type: physicochemical
Method in brief: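 UPLC read-out of polypeptide concentration after centrifugation. Samples: aqueous polypeptide stock ([…]) + 100 mM buffer 1:1, glycylglycine pH 3.0–5.0 or bistrispropane pH 6.0–8.0; 18 h, RT.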

[4] = bistrispropane buffer, pH 6.5, read-out: Solubility pH 6.5 Concentration
[5] = bistrispropane buffer, pH 7.5, read-out: Solubility pH 7.5 Concentration
[6] = bistrispropane buffer, pH 6.0, read-out: Solubility pH 6.0 Concentration
[7] = bistrispropane buffer, pH 7.0, read-out: Solubility pH 7.0 Concentration
[8] = bistrispropane buffer, pH 8.0, read-out: Solubility pH 8.0 Concentration
[9] = glycylglycine buffer, pH 3.0, read-out: Solubility pH 3.0 Concentration
[10] = glycylglycine buffer, pH 4.0, read-out: Solubility pH 4.0 Concentration
[11] = glycylglycine buffer, pH 5.0, read-out: Solubility pH 5.0 Concentration

Structure (SMILES) | Food intake reduction 0-24 h 30 nmol/kg (%) [1] | Food intake reduction 24-48 h 30 nmol/kg (%) [1] | ThT pH 4.0 lag time (h) [2] | solubility at 18 h [3, 4] | solubility at 18 h [3, 5] | solubility at 18 h [3, 6] | solubility at 18 h [3, 7] | solubility at 18 h [3, 8] | solubility at 18 h [3, 9] | solubility at 18 h [3, 10] | solubility at 18 h [3, 11] | Solubility pH 6.5 Concentration ([3]; pH 6.5 (Table 9a)) | Solubility pH 7.0 Concentration ([3]; pH 7.0 (Table 9a))
CC[C@H](C)[C@H](NC(=O)[C@H](C)NC(=O)CNC(=O)[C@H](Cc1ccccc1)NC(=O)[C@H](CC(N)=O)NC(=O)[C@@H]1CCCN1C(=O)[C@H](CO)NC(=O)[C@H](CO)NC(=O)[C@H](Cc1c[nH]cn1)NC(=O)[C@H](CCCNC(=N)N)NC(=O)[C@H](CC(C)C)NC(=O)[C@H](Cc1ccccc1)NC(=O)[C@H](Cc1c[nH]cn1)NC(=O)[C@H](C)NC(=O)[C@H](CC(C)C)NC(=O)[C@H](CCCNC(=N)N)NC(=O)[C@H](CCC(N)=O)NC(=O)[C@@H](NC(=O)[C@H](C)NC(=O)[C@@H]1CSSC[C@H](NC(=O)[C@@H](N)CCCCNC(=O)CC[C@H](NC(=O)CCCCCCCCCCCCCCCCCCC(=O)O)C(=O)O)C(=O)N[C@@H](CC(N)=O)C(=O)N[C@@H]([C@@H](C)O)C(=O)N[C@@H](C)C(=O)N[C@@H]([C@@H](C)O)C(=O)N1)[C@@H](C)O)C(=O)N1CCC[C@H]1C(=O)N[C@@H](CO)C(=O)N[C@@H](CO)C(=O)N[C@H](C(=O)N[C@@H](CC(N)=O)C(=O)N[C@H](C(=O)NCC(=O)N1CCC[C@H]1C(=O)N[C@@H](CC(N)=O)C(=O)N[C@H](C(=O)N[C@@H](Cc1ccc(O)cc1)C(N)=O)[C@@H](C)O)C(C)C)[C@@H](C)O [Example 67] (H-K([γGlu-C20 diacid])CNTATCATQRLAHFLRHSSPNFGAIPSSTNVGPNTY-NH2; disulfide 2-7 (inferred); N-terminus assumed) | 47% | 0% | 26 h | ≥ 200 µM | ≥ 200 µM | ≥ 200 µM | ≥ 200 µM | 178 µM (≈ 786 µg/mL) | ≥ 200 µM | ≥ 200 µM | ≥ 200 µM |  | 
CC[C@H](C)[C@H](NC(=O)[C@H](C)NC(=O)CNC(=O)[C@H](Cc1ccccc1)NC(=O)[C@H](CC(N)=O)NC(=O)[C@@H]1CCCN1C(=O)[C@H](CO)NC(=O)[C@H](CO)NC(=O)[C@H](Cc1c[nH]cn1)NC(=O)[C@H](CCCNC(=N)N)NC(=O)[C@H](CC(C)C)NC(=O)[C@H](Cc1ccccc1)NC(=O)[C@H](Cc1c[nH]cn1)NC(=O)[C@H](C)NC(=O)[C@H](CC(C)C)NC(=O)[C@H](CCCNC(=N)N)NC(=O)[C@H](CCC(N)=O)NC(=O)[C@@H](NC(=O)[C@H](C)NC(=O)[C@@H]1CSSC[C@H](NC(=O)[C@@H](N)CCCCNC(=O)COCCOCCNC(=O)CC[C@H](NC(=O)CCCCCCCCCCCCCCCCCCC(=O)O)C(=O)O)C(=O)N[C@@H](CC(N)=O)C(=O)N[C@@H]([C@@H](C)O)C(=O)N[C@@H](C)C(=O)N[C@@H]([C@@H](C)O)C(=O)N1)[C@@H](C)O)C(=O)N1CCC[C@H]1C(=O)N[C@@H](CO)C(=O)N[C@@H](CO)C(=O)N[C@H](C(=O)N[C@@H](CC(N)=O)C(=O)N[C@H](C(=O)NCC(=O)N1CCC[C@H]1C(=O)N[C@@H](CC(N)=O)C(=O)N[C@H](C(=O)N[C@@H](Cc1ccc(O)cc1)C(N)=O)[C@@H](C)O)C(C)C)[C@@H](C)O [Example 68] (H-K([AEEA-γGlu-C20 diacid])CNTATCATQRLAHFLRHSSPNFGAIPSSTNVGPNTY-NH2; disulfide 2-7) | 33% | 0% | 24 h | ≥ 200 µM | 193 µM (≈ 880 µg/mL) | ≥ 200 µM | ≥ 200 µM | 138 µM (≈ 631 µg/mL) | ≥ 200 µM | ≥ 200 µM | ≥ 200 µM |  | 
CC[C@H](C)[C@H](NC(=O)[C@H](C)NC(=O)CNC(=O)[C@H](Cc1ccccc1)NC(=O)[C@H](CC(N)=O)NC(=O)[C@@H]1CCCN1C(=O)[C@H](CO)NC(=O)[C@H](CO)NC(=O)[C@H](Cc1c[nH]cn1)NC(=O)[C@H](CCCNC(=N)N)NC(=O)[C@H](CC(C)C)NC(=O)[C@H](Cc1ccccc1)NC(=O)[C@H](CC(N)=O)NC(=O)[C@H](C)NC(=O)[C@H](CC(C)C)NC(=O)[C@H](CCCNC(=N)N)NC(=O)[C@H](CCC(N)=O)NC(=O)[C@@H](NC(=O)[C@H](C)NC(=O)[C@@H]1CSSC[C@H](NC(=O)[C@@H](N)CCCCNC(=O)COCCOCCNC(=O)CC[C@H](NC(=O)CCCCCCCCCCCCCCCCCCC(=O)O)C(=O)O)C(=O)N[C@@H](CC(N)=O)C(=O)N[C@@H]([C@@H](C)O)C(=O)N[C@@H](C)C(=O)N[C@@H]([C@@H](C)O)C(=O)N1)[C@@H](C)O)C(=O)N1CCC[C@H]1C(=O)N[C@@H](CO)C(=O)N[C@@H](CO)C(=O)N[C@H](C(=O)N[C@@H](CC(N)=O)C(=O)N[C@H](C(=O)NCC(=O)N[C@@H](Cc1c[nH]cn1)C(=O)N[C@@H](CC(N)=O)C(=O)N[C@H](C(=O)N[C@@H](Cc1ccc(O)cc1)C(N)=O)[C@@H](C)O)C(C)C)[C@@H](C)O [Example 76] (H-K([AEEA-γGlu-C20 diacid])CNTATCATQRLANFLRHSSPNFGAIPSSTNVGHNTY-NH2; disulfide 2-7; N-terminus assumed) | 31% | 2% | 22 h | ≥ 200 µM | ≥ 200 µM | ≥ 200 µM | ≥ 200 µM | 140 µM (≈ 638 µg/mL) | ≥ 200 µM | ≥ 200 µM | ≥ 200 µM |  | 
CC[C@H](C)[C@H](NC(=O)[C@H](C)NC(=O)CNC(=O)[C@H](Cc1ccccc1)NC(=O)[C@H](CC(N)=O)NC(=O)[C@@H]1CCCN1C(=O)[C@H](CO)NC(=O)[C@H](CO)NC(=O)[C@H](Cc1c[nH]cn1)NC(=O)[C@H](CCCNC(=N)N)NC(=O)[C@H](CC(C)C)NC(=O)[C@H](Cc1ccccc1)NC(=O)[C@H](CC(N)=O)NC(=O)[C@H](C)NC(=O)[C@H](CC(C)C)NC(=O)[C@H](CCCNC(=N)N)NC(=O)[C@H](CCC(N)=O)NC(=O)[C@@H](NC(=O)[C@H](C)NC(=O)[C@@H]1CSSC[C@H](NC(=O)[C@@H](N)CCCCNC(=O)CC[C@H](NC(=O)CCCCCCCCCCCCCCCCCCC(=O)O)C(=O)O)C(=O)N[C@@H](CC(N)=O)C(=O)N[C@@H]([C@@H](C)O)C(=O)N[C@@H](C)C(=O)N[C@@H]([C@@H](C)O)C(=O)N1)[C@@H](C)O)C(=O)N1CCC[C@H]1C(=O)N[C@@H](CO)C(=O)N[C@@H](CO)C(=O)N[C@H](C(=O)N[C@@H](CC(N)=O)C(=O)N[C@H](C(=O)NCC(=O)N[C@@H](Cc1c[nH]cn1)C(=O)N[C@@H](CC(N)=O)C(=O)N[C@H](C(=O)N[C@@H](Cc1ccc(O)cc1)C(N)=O)[C@@H](C)O)C(C)C)[C@@H](C)O [Example 77] | 40% | 16% | 21 h | ≥ 200 µM | 147 µM (≈ 651 µg/mL) | ≥ 200 µM | ≥ 200 µM | 59 µM (≈ 261 µg/mL) | ≥ 200 µM | ≥ 200 µM | ≥ 200 µM | ≧200 μM | ≧200 μM
CC[C@H](C)[C@H](NC(=O)[C@H](C)NC(=O)CNC(=O)[C@H](Cc1ccccc1)NC(=O)[C@H](CC(N)=O)NC(=O)[C@@H]1CCCN1C(=O)[C@H](CO)NC(=O)[C@H](CO)NC(=O)[C@H](Cc1c[nH]cn1)NC(=O)[C@H](CCCNC(=N)N)NC(=O)[C@H](CC(C)C)NC(=O)[C@H](Cc1ccccc1)NC(=O)[C@H](Cc1c[nH]cn1)NC(=O)[C@H](C)NC(=O)[C@H](CC(C)C)NC(=O)[C@H](CCCNC(=N)N)NC(=O)[C@H](CCC(N)=O)NC(=O)[C@@H](NC(=O)[C@H](C)NC(=O)[C@@H]1CSSC[C@H](NC(=O)[C@@H](N)CCCCNC(=O)COCCOCCNC(=O)CC[C@H](NC(=O)CCCCCCCCCCCCCCCCCCC(=O)O)C(=O)O)C(=O)N[C@@H](CC(N)=O)C(=O)N[C@@H]([C@@H](C)O)C(=O)N[C@@H](C)C(=O)N[C@@H]([C@@H](C)O)C(=O)N1)[C@@H](C)O)C(=O)N1CCC[C@H]1C(=O)N[C@@H](CO)C(=O)N[C@@H](CO)C(=O)N[C@H](C(=O)N[C@@H](CC(N)=O)C(=O)N[C@H](C(=O)NCC(=O)N[C@@H](Cc1c[nH]cn1)C(=O)N[C@@H](CC(N)=O)C(=O)N[C@H](C(=O)N[C@@H](Cc1ccc(O)cc1)C(N)=O)[C@@H](C)O)C(C)C)[C@@H](C)O [Example 80] (H-K([AEEA-γGlu-C20 diacid])CNTATCATQRLAHFLRHSSPNFGAIPSSTNVGHNTY-NH2; disulfide 2-7; N-terminus assumed) | 46% | 9% | 28 h | ≥ 200 µM | ≥ 200 µM | ≥ 200 µM | ≥ 200 µM | ≥ 200 µM | ≥ 200 µM | ≥ 200 µM | ≥ 200 µM |  | 
